Test results as given in patent US7750184B2, “Vitamin D receptor modulators” (Eli Lilly and Company, priority 2003, dated 2010).
Read-outs that look alike come from different tables or passages of the source.

How the values were obtained:
RXR-VDR heterodimer = molecular target: T1, RXR-VDR heterodimer (Homo sapiens, UniProt P11473); test: RXR-VDR heterodimerization assay (SaOS-2 cells); type: cell-based; details: Gal4-RXR-DEF / VP16-VDR-LBD, luciferase reporter
T1 construct: Add the Gal4-RXR-DEF and VP16-VDR-LBD; expressed in transfected cells; host or cells: SaOS-2 cells
T1 sequence (P11473 127-423 limits assumed): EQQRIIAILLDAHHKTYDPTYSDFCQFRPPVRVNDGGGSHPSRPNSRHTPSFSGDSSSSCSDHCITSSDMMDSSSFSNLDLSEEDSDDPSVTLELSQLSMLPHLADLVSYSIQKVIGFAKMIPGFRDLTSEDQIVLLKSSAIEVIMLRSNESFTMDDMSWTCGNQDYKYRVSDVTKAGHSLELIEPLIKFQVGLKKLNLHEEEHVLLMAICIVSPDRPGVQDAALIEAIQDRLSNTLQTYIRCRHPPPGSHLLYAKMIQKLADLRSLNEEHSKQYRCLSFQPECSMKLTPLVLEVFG
T1 sequence (P19793 201-462 partner limits assumed): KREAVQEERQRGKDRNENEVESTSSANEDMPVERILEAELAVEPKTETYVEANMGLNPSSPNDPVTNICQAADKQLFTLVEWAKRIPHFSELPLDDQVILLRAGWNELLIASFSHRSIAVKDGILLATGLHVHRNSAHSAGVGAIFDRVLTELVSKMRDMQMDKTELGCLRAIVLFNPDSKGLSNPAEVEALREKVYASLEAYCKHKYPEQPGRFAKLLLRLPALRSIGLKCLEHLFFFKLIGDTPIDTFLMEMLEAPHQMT
Source text: 1. The RXR-VDR heterodimer Assay:
This assay provides the VDR activity of a test compound.
(1) Materials and Method for RXR-VDR Heterodimerization Assay:
Luciferase Assay Reagent: • Use Steady-Glo Luciferase Reagent from Promega (Cat # E2550) Consists of:
Add plain DMEM media to tubes for mixing the DNA
Add the Reporter gene pFR-LUC
Add the Gal4-RXR-DEF and VP16-VDR-LBD
Make a stock solution of the compounds in DMSO
Further dilute in D-MEM (Low Glucose—With out Phenol Red)
Read the plates after drug treatment
Add Steady-Glo Luciferase Reagent mixture/wells
Count each well using a Luminescence counter, Top Count NXT by Packard

VDR = molecular target: T2, VDR (Homo sapiens, UniProt P11473); test: Caco-2 cell co-transfection assay (VDR CTF); type: cell-based; details: Caco-2 cells, pGal4-VDR-LBD co-transfection, luciferase reporter
T2 construct: the receptor expression vector pGal4-VDR-LBD (10 ng); expressed in transfected cells; host or cells: Caco-2 cells
T2 sequence (P11473 127-423 limits assumed): T1 sequence (P11473 127-423 limits assumed)
Experimental: 2. The Caco-2 Cell Co-Transfection Assay:
The Caco-2 cell assay is an indicator for the undesirable condition of hypercalcemia. This co-transfection assay is a surrogate assay for in vivo calcemic activity of VDR ligands. […] Preferred assay results are greater than 1000 nM.
(2) Materials and Method for The Caco-2 Cell Assay:
Caco-2 cells, grown in phenol red free, DMEM (Invitrogen, Carlsbad, Calif.) containing 10% charcoal-stripped FCS (Hyclone, Logan, Utah), were transfected with Fugene 6 reagent (Roche Diagnostics, Indianapolis, Ind.). Cells (5000/well) were plated 18 h before transfection in a 96 well plate. The Cells were transfected with Gal4-responsive reporter pFRLuc (150 ng, Stratagene, La Jolla Calif.) and the receptor expression vector pGal4-VDR-LBD (10 ng), along with Fugene 6 reagent (0.2 μl/well). The DNA-Fugene complex was formed by incubating the mixture for 30 min at room temperature. The cells were transfected in triplicate for 5 h, and treated with various concentrations of VDR ligands (form 0.01 nM to 10,000 nM concentration range) 18 h post-transfection. The luciferase activity was quantified using Steady-Glo reagent kit (Promega, Madison, Wis.) as per manufacturer's specifications.

rat osteocalcin promoter = test: OCN (osteocalcin) promoter assay; type: cell-based; details: RG-15 (ROS 17/2.8) cells, 48 hr treatment, luciferase reporter
Experimental: 3. The OCN (osteocalcin) Promoter Assay
The OCN Promoter Assay is an indicator and marker for osteoporosis. […] Preferred assay results are less than 50 nM.
(3) Materials and Method for the OCN Promoter Assay:
The activation of osteocalcin by VDR ligands was evaluated in a rat osteoblast-like cell line RG-15 (ROS 17/2.8) stably expressing rat osteocalcin promoter fused with luciferase reporter gene. […] Confluent RG-15 cells maintained in DMEM/F-12 medium (3:1) containing 5% FBS, 300 μg/ml G418 and at 37° C. under 5% CO2/95% air atmosphere were trypsinized (0.25% trypsin) and plated into white opaque 96-well cell culture plates (25000 cells/well). After 24 hr, cells (in DMEM/F-12 medium+2% FBS) were treated with various concentrations of compounds, dissolved in DMSO. The final DMSO concentration remained at 0.01% (v/v). After 48 hr treatment, the medium was removed, cells were lysed with 50 μl of lysis buffer (From Luciferase reporter assay system, Roche Diagnostics, Indianapolis, Ind.) and assayed for luciferase activity using the Luciferase Reporter Gene Assay kit from Boehringer Mannheim as per manufacturer's specifications.

KERtr cells = test: Keratinocyte proliferation assay; type: cell-based; details: Homo sapiens, 72 hr, BrdU incorporation, read-out: Kera. Prolif. IC50
Experimental: 5. The Keratinocte Proliferation Assay
This Assay is indicative for the treatment of psoriasis.
(5) The Keratinocyte Proliferation Assay:
KERtr cells (Human skin keratinocyte transformed with a retrovirus vector, obtained from ATCC) were plated in 96-well flat-bottomed plates (3000 cells/well) in 100 µl keratinocyte serum free medium supplemented with bovine pituitary extract in the absence of EGF (Life Technologies, Rockville, Md.) and incubated at 37° C. for two days. The cells were treated with various concentrations of VDR ligands (ten-fold serial dilution from 10,000 nM to 0.1 nM in triplicate), dissolved in 100 μl keratinocyte serum free medium supplemented with bovine pituitary extract in the absence of EGF and incubated at 37° C. for 72 hr. BrdU (5-bromo-2′-deoxyuridine) incorporation was analyzed as a measure of DNA replication (Cell proliferation ELISA kit, Roche Diagnostics, Indianapolis, Ind.) and absorbance was measured at 405 nm. Potency values (IC50) values were determined as the concentration (nM) of compound that elicited a half-maximal response.

[1] = Mouse hypercalcemia assay; details: oral gavage for 6 days, serum ionized calcium 6 hours after last dosing
Experimental: (§1) The Mouse Hypercalcemia Assay is a six day hypercalcemia test for toxicity and selectivity. Acceptable test results are levels greater than 300 μg/kg/day. Preferred assay results are levels greater than 1000 μg/day.
(§2) (4) Materials and Method for the Mouse Hypercalcemia Assay:
(§3) Weanling, virus—antibody-free, five to six weeks old female DBF mice (Harlan, Indianapolis, Ind.) are used for all the studies. Animals are allowed to acclimate to local vivarium conditions for 2 days. […] The animals then are divided into groups with 4-5 mice per group. Different doses of test compounds prepared in 10% Ethanol and 90% sesame oil are administered to mice orally via gavage for 6 days. 1α-25(OH)2D3 0.5 μg/kg/d was also given to one group of mice as the positive control. […] Raw data of group differences is assessed by analysis of variance (ANOVA) using Fisher's protected least significant difference (PLSD) where the significance level was P<0.05.

[2] = in vivo, po
Experimental: as §1, §2, §3

[3] = system: IL-10 production in PBMCs; test: IL-10 induction assay; type: cell-based; details: PBMC; TPA/PHA stimulated human PBMCs, IL-10 immunoassay
Source text: 6. The IL-10 induction Assay
This is an in vitro efficacy assay for psoriasis, abscess and adhesion. Psoriasis involves both keratinocytes and immune cells. IL-10 is a unique cytokine because it is anti-inflammatory and immunosuppressive. This assay tells us whether a VDRM is able to function as an agonist in PBMCs (primary blood mononuclear cells) or not. A lower EC50 value is desirable in this assay since a compound with a lower EC50 value will be a better agonist in PBMCs.
(6) Materials and Method for Human IL-10 Induction Assay:
Isolation of Peripheral Blood Mononuclear Cells (PBMCs):
• A. Collect 50 ml of human blood and dilute with media, RPMI-1640. • B. Prepare sterile tubes with ficol. • C. Add diluted blood to tubes. • D. Centrifuge. • E. Discard the top layer and collect the cells from middle layer. • F. Divide all cells into four tubes and add media. • G. Centrifuge. • H. Aspirate off media and resuspend. • I. Collect all cells • J. Centrifuge. at 1200 rpm for 10 minutes. • K. Resuspend in RPMI-1640 with 2% FBS and count cells • Stimulation of PBMC: • L. Prepare TPA in DMSO. • M. Dissolve PHA in water. • N. Plate TPA/PHA treated PBMCs in well plates. • O. Incubate.
Treatment: • P. Prepare all compound dilutions in plain RPMI-1640 media. • Q. Add diluted compound. • R. Incubate. […]

Compound | EC50 (RXR-VDR heterodimer) [nM] | EC50 (VDR) [nM] | EC50 (rat osteocalcin promoter; Rattus norvegicus, 48 h) [nM] | IC50 (KERtr cells) [nM] | Mouse Hypercal [1] [µg/kg/day] | Mouse Hypercal [2] [µg/kg/day] | EC50 (rat osteocalcin promoter) [nM] | IC50 [3] [nM]
CCC(CC)(c1ccc(OCC(=O)C(C)(C)C)c(C)c1)c1ccc(N(C)S(C)(=O)=O)c(C)c1 [Ex. 18, N-(4-{1-[4-(3,3-Dimethyl-2-oxo-butoxy)-3-methyl-phenyl]-1-ethyl-propyl}-2-methyl-phenyl)-N-methyl-methanesulfonamide] | 69.6 | 485 | 7.62 | 32 | 1500 |  |  | 
CCC(CC)(c1ccc(OCC(=O)C(C)(C)C)cc1)c1ccc(OS(C)(=O)=O)c(C)c1 [Ex. 36, 3′-[4-(2-oxo-3,3-dimethylbutoxy)-phenyl]-3′-[4-methylsulfonyloxy-3-methylphenyl]pentane] | 15.2 | 592 | 45.5 | 36 | >3000 |  |  | 
CCCS(=O)(=O)Nc1ccc(C(CC)(CC)c2ccc(OCC(=O)C(C)(C)C)c(C)c2)cc1C [Ex. 26, N-(4-{1-[4-(3,3-Dimethyl-2-oxo-butoxy)-3-methyl-phenyl]-1-ethyl-propyl}-2-methyl-phenyl)-1-propanesulfonamide] | 5.7 | 333 | 3.69 | 4.4 | <1000 |  |  | 
C=C1/C(=C\C=C2/CCC[C@]3(C)[C@@H]([C@H](C)CCCC(C)(C)O)CC[C@@H]23)C[C@@H](O)C[C@@H]1O [AA, 1α,25-dihydroxyvitamin D3] |  |  |  |  |  | 0.06 |  | 
CCC(CC)(c1ccc(OS(C)(=O)=O)cc1)c1ccc(OCC(O)C(C)(C)C)c(Cl)c1 (single isomer, unassigned) [Ex. 45, 51B, 3′-[3-chloro-4-(2-hydroxy-3,3-dimethylbutoxy)phenyl]-3′-(4-methylsulfonyloxyphenyl)pentane] | 24 | 353 |  | 27 |  |  | 13 | 39.5
CCC(CC)(c1ccc(OS(C)(=O)=O)cc1)c1ccc(OCC(=O)C(C)(C)C)c(Cl)c1 [Ex. 42, 3′-[3-chloro-4-(2-oxo-3,3-dimethylbutoxy)phenyl]-3′-[4-(methylsulfonyloxy)phenyl]pentane] | 495 | 728 | 25.1 | 9 | <1000 |  |  | 
CCCS(=O)(=O)N(c1ccc(C(CC)(CC)c2ccc(OCC(=O)C(C)(C)C)c(C)c2)cc1C)S(=O)(=O)CCC [Ex. 25, N-(4-{1-[4-(3,3-Dimethyl-2-oxo-butoxy)-3-methyl-phenyl]-1-ethyl-propyl}-2-methyl-phenyl)-N,N-bis-1-propanesulfonamide] | 47.3 | 1290 | 34.2 | 14.6 |  |  |  | 
CCC(CC)(c1ccc(OS(=O)(=O)C(F)(F)F)cc1)c1ccc(OCC(O)C(C)(C)C)c(Cl)c1 (stereo not shown) [Ex. 47, 53, 3′-[3-chloro-4-(2-hydroxy-3.3-dimethylbutoxy)phenyl]-3′-(4-trifluoromethylsulfonyloxyphenyl)pentane] | 12.5 | 431 | 92.5 | 300 |  |  |  | 
